Test: Saturation concentration in water
Format: physicochemical
Settings: standard temperature and pressure stated for sodium thiosulfate
Method: For example, at standard temperature and pressure, water can become saturated with sodium thiosulfate at a concentration of about 700 mg/mL. Accordingly, in some embodiments, the concentration of a solution (e.g., an aqueous solution) containing sodium thiosulfate can be about 700 mg/mL. […] Accordingly, in some embodiments, the concentration of the sodium thiosulfate is between about 400 and about 700 mg/mL (e.g., between about 500 and about 700 mg/mL). In some embodiments, the concentration of the sodium thiosulfate salt is about 100, about 200, about 300, about 400, about 500, about 600, or about 700 mg/mL. In some embodiments, the concentration can be lower than 700 mg/mL.
In some embodiments, a metabisulfite solution (e.g., sodium metabisulfite) solution in water can become saturated at about 300 mg/mL. Accordingly, in some embodiments solutions of sodium metabisulfite are used at a concentration of about 300 mg/mL, about 200 mg/mL, or about 100 mg/mL.

| concentration at which water becomes saturated | SMILES |
| --- | --- |
| about 700 mg/mL | O.O.O.O.O.O=S([O-])([O-])=S.[Na+].[Na+] [sodium thiosulfate, sodium thiosulfate pentahydrate] |
| about 300 mg/mL | O=S([O-])S(=O)(=O)[O-].[Na+].[Na+] [sodium metabisulfite] |

— US20200352184A1, “Prevention of Postharvest Physiological Deterioration using Sulfur-Donating Compounds” (Apeel Technology, Inc., priority 2017, published 2020)
